Data as given in patent US20070142392A1, “Uses of rifamycins” (ActivBiotics, Inc., priority 2005, published 2007).
Converted amounts (≈) assume the structure as drawn.

What was measured:
Type in all cases: cell-based
S. pneumo. = test: MIC values, S. pneumo. (Tables 1-4)
E. faecalis = test: MIC values, E. faecalis (Tables 1-4)
H. flu = test system: H. flu
S. aureus = test: MIC values, S. aureus (Tables 1-4)
E. coli = test: MIC values, E. coli (Tables 1-4)

SMILES	MIC S. pneumo. (S. pneumo.) [µg/mL]	MIC E. faecalis (E. faecalis) [µg/mL]	MIC H. flu (H. flu) [µg/mL]	MIC S. aureus (S. aureus) [µg/mL]	MIC E. coli (E. coli) [µg/mL]
COC1C=COC2(C)Oc3c(C)c(O)c4c(=O)c(c5oc6cc(N7CC8C(N)C8C7)cc(O)c6nc-5c4c3C2=O)NC(=O)C(C)=CC=CC(C)C(O)C(C)C(O)C(C)C(O)C1C (stereo not shown) [Compound 20]	1 (≈ 1.17 µM)	>8	>8	2 (≈ 2.34 µM)	>8
COC1C=COC2(C)Oc3c(C)c(O)c4c(=O)c(c5oc6cc(N7CCC(F)C7)ccc6nc-5c4c3C2=O)NC(=O)C(C)=CC=CC(C)C(O)C(C)C(O)C(C)C(O)C1C (mixture of isomers) [Compound 122]	0.015	0.5	0.06	0.03	4
COC1C=COC2(C)Oc3c(C)c(O)c4c(=O)c(c5sc6cc(N7CCN8CCCC8C7)ccc6nc-5c4c3C2=O)NC(=O)C(C)=CC=CC(C)C(O)C(C)C(O)C(C)C(OC(C)=O)C1C (stereo not shown) [Compound 76]	0.00025 (≈ 0.00027 µM)	0.5 (≈ 0.54 µM)	0.25 (≈ 0.27 µM)	0.008 (≈ 0.00865 µM)	4 (≈ 4.32 µM)
CO[C@H]1/C=C/O[C@@]2(C)Oc3c(C)c(O)c4c(=O)c(c5sc6cc(N7C[C@@H](C)N[C@@H](C)C7)ccc6nc-5c4c3C2=O)NC(=O)/C(C)=C\C=C\[C@H](C)[C@H](O)[C@@H](C)[C@@H](O)[C@@H](C)[C@H](O)[C@@H]1C [Compound 65]	0.00025 (≈ 0.000287 µM)	0.12 (≈ 0.138 µM)	0.12 (≈ 0.138 µM)	0.002 (≈ 0.0023 µM)	2 (≈ 2.3 µM)
CCOC(=O)N1CCCC2CN(c3cc(O)c4nc5c6c7c8c(C)c(O)c6c(=O)c(c-5oc4c3)NC(=O)C(C)=CC=CC(C)C(O)C(C)C(O)C(C)C(O)C(C)C(OC)C=COC(C)(O8)C7=O)CC21 (stereo not shown) [Compound 42]	0.00012 (≈ 0.000126 µM)	2 (≈ 2.09 µM)	0.5 (≈ 0.524 µM)	0.008 (≈ 0.00838 µM)	8 (≈ 8.38 µM)
CO[C@H]1/C=C/O[C@@]2(C)Oc3c(C)c(O)c4c(=O)c(c5oc6cc(N7CCN(CCF)CC7)cc(O)c6nc-5c4c3C2=O)NC(=O)/C(C)=C\C=C\[C@H](C)[C@H](O)[C@@H](C)[C@@H](O)[C@@H](C)[C@H](O)[C@@H]1C [Compound 105]	0.001 (≈ 0.00112 µM)	0.12 (≈ 0.135 µM)	0.12 (≈ 0.135 µM)	0.004 (≈ 0.0045 µM)	8 (≈ 9 µM)
CCOc1c(N2CCN(CC3CC3)CC2)ccc2nc3c4c5c6c(C)c(O)c4c(=O)c(c-3oc12)NC(=O)/C(C)=C\C=C\[C@H](C)[C@H](O)[C@@H](C)[C@@H](O)[C@@H](C)[C@H](O)[C@H](C)[C@@H](OC)/C=C/O[C@@](C)(O6)C5=O [Compound 108]	0.015 (≈ 0.0162 µM)	0.5 (≈ 0.54 µM)	1 (≈ 1.08 µM)	0.03 (≈ 0.0324 µM)	>8
CCOC(=O)NC1CCN(c2cc(O)c3nc4c5c6c7c(C)c(O)c5c(=O)c(c-4oc3c2)NC(=O)/C(C)=C\C=C\[C@H](C)[C@H](O)[C@@H](C)[C@@H](O)[C@@H](C)[C@H](O)[C@H](C)[C@@H](OC)/C=C/O[C@@](C)(O7)C6=O)CC1 [Compound 3]	0.0005 (≈ 0.000538 µM)	0.12 (≈ 0.129 µM)	0.25 (≈ 0.269 µM)	0.03 (≈ 0.0323 µM)	4 (≈ 4.31 µM)
COC1C=COC2(C)Oc3c(C)c(O)c4c(=O)c(c5oc6cc(N7CC(C)OC(C)C7)cc(O)c6nc-5c4c3C2=O)NC(=O)C(C)=CC=CC(C)C(O)C(C)C(O)C(C)C(O)C1C (mixture of isomers) [Compound 117]	0.002	0.25	0.25	0.015	8
CO[C@H]1/C=C/O[C@@]2(C)Oc3c(C)c(O)c4c(=O)c(c5oc6cc(N7CC8CCC(C7)N8)cc(O)c6nc-5c4c3C2=O)NC(=O)/C(C)=C\C=C\[C@H](C)[C@H](O)[C@@H](C)[C@@H](O)[C@@H](C)[C@H](O)[C@@H]1C [Compound 16]	0.001 (≈ 0.00115 µM)	0.12 (≈ 0.138 µM)	0.25 (≈ 0.288 µM)	0.015 (≈ 0.0173 µM)	4 (≈ 4.6 µM)
CCOC(=O)N1CCCC2CN(c3cc(O)c4nc5c6c7c8c(C)c(O)c6c(=O)c(c-5oc4c3)NC(=O)C(C)=CC=CC(C)C(O)C(C)C(O)C(C)C(OC(C)=O)C(C)C(OC)C=COC(C)(O8)C7=O)CC21 (stereo not shown) [Compound 147]	0.008 (≈ 0.00802 µM)	1 (≈ 1 µM)	0.5 (≈ 0.501 µM)	0.06 (≈ 0.0602 µM)	>8
CO[C@H]1/C=C/O[C@@]2(C)Oc3c(C)c(O)c4c(=O)c(c5oc6cc(N7CCC(CCO)CC7)cc(O)c6nc-5c4c3C2=O)NC(=O)/C(C)=C\C=C\[C@H](C)[C@H](O)[C@@H](C)[C@@H](O)[C@@H](C)[C@H](OC(C)=O)[C@@H]1C [Compound 61]	0.00012 (≈ 0.000129 µM)	1 (≈ 1.08 µM)	0.25 (≈ 0.269 µM)	0.004 (≈ 0.00431 µM)	>8
CO[C@H]1/C=C/O[C@@]2(C)Oc3c(C)c(O)c4c(=O)c(c5oc6cc(N7CCC(NC(=O)N8CCN(C)CC8)CC7)cc(O)c6nc-5c4c3C2=O)NC(=O)/C(C)=C\C=C\[C@H](C)[C@H](O)[C@@H](C)[C@@H](O)[C@@H](C)[C@H](OC(C)=O)[C@@H]1C [Compound 50]	0.00012 (≈ 0.000117 µM)	4 (≈ 3.9 µM)	0.5 (≈ 0.488 µM)	0.03 (≈ 0.0293 µM)	>8
COC1C=COC2(C)Oc3c(C)c(O)c4c(=O)c(c5oc6cc(N7CCN8CCCC8C7)cc(O)c6nc-5c4c3C2=O)NC(=O)C(C)=CC=CC(C)C(O)C(C)C(O)C(C)C(O)C1C (stereo not shown) [Compound 87]	0.00025 (≈ 0.000283 µM)	0.03 (≈ 0.034 µM)	0.25 (≈ 0.283 µM)	0.002 (≈ 0.00226 µM)	4 (≈ 4.53 µM)
CO[C@H]1/C=C/O[C@@]2(C)Oc3c(C)c(O)c4c(=O)c(c5oc6cc(F)ccc6nc-5c4c3C2=O)NC(=O)/C(C)=C\C=C\[C@H](C)[C@H](O)[C@@H](C)[C@@H](O)[C@@H](C)[C@H](O)[C@@H]1C [Compound 139]	0.03 (≈ 0.0394 µM)	0.5 (≈ 0.657 µM)	0.5 (≈ 0.657 µM)	0.03 (≈ 0.0394 µM)	>8
CO[C@H]1/C=C/O[C@@]2(C)Oc3c(C)c(O)c4c(=O)c(c5sc6cc(N7CCCN(C)CC7)ccc6nc-5c4c3C2=O)NC(=O)/C(C)=C\C=C\[C@H](C)[C@H](O)[C@@H](C)[C@@H](O)[C@@H](C)[C@H](O)[C@@H]1C [Compound 125]	0.00025 (≈ 0.000287 µM)	0.25 (≈ 0.287 µM)	0.12 (≈ 0.138 µM)	0.002 (≈ 0.0023 µM)	2 (≈ 2.3 µM)
COCCN1CCN(c2cc(O)c3nc4c5c6c7c(C)c(O)c5c(=O)c(c-4oc3c2)NC(=O)/C(C)=C\C=C\[C@H](C)[C@H](O)[C@@H](C)[C@@H](O)[C@@H](C)[C@H](O)[C@H](C)[C@@H](OC)/C=C/O[C@@](C)(O7)C6=O)CC1 [Compound 92]	0.00025 (≈ 0.000277 µM)	0.12 (≈ 0.133 µM)	0.25 (≈ 0.277 µM)	0.004 (≈ 0.00444 µM)	8 (≈ 8.88 µM)
CO[C@H]1/C=C/O[C@@]2(C)Oc3c(C)c(O)c4c(=O)c(c5oc6cc(N7CCC(NC(=O)OCC(C)C)CC7)cc(O)c6nc-5c4c3C2=O)NC(=O)/C(C)=C\C=C\[C@H](C)[C@H](O)[C@@H](C)[C@@H](O)[C@@H](C)[C@H](OC(C)=O)[C@@H]1C [Compound 13]	0.00012 (≈ 0.00012 µM)	0.5 (≈ 0.5 µM)	2 (≈ 2 µM)	0.008 (≈ 0.00801 µM)	4 (≈ 4 µM)
CC[C@H]1CN(c2cc(O)c3nc4c5c6c7c(C)c(O)c5c(=O)c(c-4oc3c2)NC(=O)/C(C)=C\C=C\[C@H](C)[C@H](O)[C@@H](C)[C@@H](O)[C@@H](C)[C@H](O)[C@H](C)[C@@H](OC)/C=C/O[C@@](C)(O7)C6=O)C[C@H](C)N1 [Compound 93]	0.00012 (≈ 0.000136 µM)	0.5 (≈ 0.565 µM)	0.25 (≈ 0.282 µM)	0.004 (≈ 0.00452 µM)	4 (≈ 4.52 µM)
CO[C@H]1/C=C/O[C@@]2(C)Oc3c(C)c(O)c4c(=O)c(c5oc6cc(N7CCC(NS(C)(=O)=O)CC7)cc(O)c6nc-5c4c3C2=O)NC(=O)/C(C)=C\C=C\[C@H](C)[C@H](O)[C@@H](C)[C@@H](O)[C@@H](C)[C@H](O)[C@@H]1C [Compound 27]	0.001 (≈ 0.00107 µM)	1 (≈ 1.07 µM)	0.12 (≈ 0.128 µM)	0.015 (≈ 0.016 µM)	>8
CO[C@H]1/C=C/O[C@@]2(C)Oc3c(C)c(O)c4c(=O)c(c5oc6cc(N7CCN(Cc8ccccc8)CC7)cc(O)c6nc-5c4c3C2=O)NC(=O)/C(C)=C\C=C\[C@H](C)[C@H](O)[C@@H](C)[C@@H](O)[C@@H](C)[C@H](O)[C@@H]1C [Compound 89]	0.001 (≈ 0.00107 µM)	>8	8 (≈ 8.57 µM)	0.03 (≈ 0.0322 µM)	>8
CCCNC(=O)NC1CCN(c2cc(O)c3nc4c5c6c7c(C)c(O)c5c(=O)c(c-4oc3c2)NC(=O)/C(C)=C\C=C\[C@H](C)[C@H](O)[C@@H](C)[C@@H](O)[C@@H](C)[C@H](OC(C)=O)[C@H](C)[C@@H](OC)/C=C/O[C@@](C)(O7)C6=O)CC1 [Compound 28]	0.002 (≈ 0.00203 µM)	1 (≈ 1.02 µM)	0.25 (≈ 0.254 µM)	0.03 (≈ 0.0305 µM)	>8
CO[C@H]1/C=C/O[C@@]2(C)Oc3c(C)c(O)c4c(=O)c(c5sc6cc(N7CCC(N(C)C)CC7)ccc6nc-5c4c3C2=O)NC(=O)/C(C)=C\C=C\[C@H](C)[C@H](O)[C@@H](C)[C@@H](O)[C@@H](C)[C@H](OC(C)=O)[C@@H]1C [Compound 69]	0.00025 (≈ 0.00027 µM)	0.5 (≈ 0.539 µM)	0.5 (≈ 0.539 µM)	0.015 (≈ 0.0162 µM)	4 (≈ 4.31 µM)
